Reference: patent publication US9260439B2, “Dihydropyrrolopyrimidine derivatives” (PFIZER INC., priority 2014, dated 2016)

Tests used:
[1] = biological target: full-length PI3Kα (full-length p110α/p85α) (Homo sapiens (Human), UniProt P42336); assay: PI3KA_FL fluorescence polarization kinase assay (Ki); format: biochemical; details: 41 μM ATP
From the text: Enzyme Production for Biochemical Assays: 1) PI3Kα Complex (Full Length p110α and p85α)(“PI3KA_FL”)
Genes encoding for full length p110α and p85α subunits of PI3Kα complex were subcloned from existing constructs into pFASTBAC Dual vector (Life Technologies, Carlsbad, Calif.) using standard cloning procedures. Gene encoding p110α subunit was subcloned into polyhedrine promoter while gene encoding p85α subunit was subcloned into p10 promoter. Additionally, sequence encoding for histidine tag and Tobacco Etch Virus (“TEV”) cleavage site preceded p110α ORF (Open Reading Frame). Recombinant baculovirus was generated using Bac-to-Bac protocol (Life Technologies, Carlsbad, Calif.) and large scale expression was conducted in Sf21 (Life Technologies, Carlsbad, Calif.) cells at a multiplicity of infection (“MOI”)=1 for 72 hours. Cells were lyzed in 50 mM Tris pH 8.0, 250 mM NaCl, 5% glycerol, 0.25 mM TCEP, and 20 mM imidazole. The PI3Kα complex was purified from clarified supernatant using Immobilized Metalo Affinity Chromatography (“IMAC”). The protein was eluted from the column using 50 mM Tris pH 8.0, 200 mM NaCl, 5% glycerol, 0.25 mM TCEP, and 200 mM imidazole, and further desalted into 50 mM Tris pH 8.0, 20 mM NaCl, and 0.25 mM TCEP prior to loading on MonoQ sepharose (GE Healthcare, Piscataway, N.J.). PI3Kα complex was eluted from MonoQ sepharose over 20 column volumes using 0-30% gradient of buffer B (50 mM Tris pH 8.0, 1 M NaCl, and 0.25 mM TCEP). The peak fractions were pulled together and loaded on Superdex 200 26/60 SEC column equilibrated in 50 mM Tris pH 8.0, 200 mM NaCl, and 0.5 mM TCEP. […] Purity and integrity of the complex was confirmed using LCMS, analytical SEC and SDS-PAGE (sodium dodecyl sulfate polyacrylamide gel electrophoresis) analysis.
The biochemical assays of kinase activity of full-length PI3Kα (full-length p110α/p85a) or truncated PI3Kα (p110α/iSH2 p85a) were conducted using a fluorescence polarization format similar to the procedure of Yuan J., et al., (2011) “PF-04691502, a Potent and Selective Oral Inhibitor of PI3K and mTOR Kinases with Antitumor Activity”, Mol Cancer Ther. 10, 2189-2199. The enzymatic reactions were conducted in 50 μL volumes in 96-well plates. The reactions contained human recombinant PI3Kα (2 nM full-length p110α/p85α or 0.5 nM p110α/iSH2 p85) and 30 μM phosphatidylinositol 4,5-bisphosphate (“PIP2”) (Cayman Chemical Company, Ann Arbor, Mich.) and were sonicated for 1 minute prior to adding PI3Kα enzyme (PI3KA_Act or PI3KA_FL), DMSO or test compound (12-point 3-fold serial dilution, 3 μM top dose, 2° A) DMSO final concentration), 5 mM MgCl2, 50 mM HEPES pH 7.4, 150 mM NaCl, 1 mM DTT ((2S,3S)-1,4-bis(sulfanyl)butane-2,3-diol), and 0.05% 3-[(3-cholamidopropyl)dimethylammonio]-1-propanesulfonate (“CHAPS”). […] The reactions were incubated for 30 min at room temperature, stopped with EDTA pH 8 (10 mM final concentration). In a detection plate, 15 μL of detector/probe mixture, containing 480 nM GST-Grp1 PH domain protein (University of Dundee, Dundee, UK) and 12 nM carboxytetramethylrhodamine (“TAMRA”)-tagged fluorescent phosphatidylinositol (3,4,5)-triphosphate (“PIP3”) (Echelon Biosciences, Inc., Salt Lake City, Utah) in assay buffer, was mixed with 15 μL of kinase reaction mixture. The plate was shaken for 30 minutes and fluorescence polarization values were measured on an LJL Analyst HT plate reader (Molecular Devices, Sunnyvale, Calif.). […] The inhibition constants (Ki) were calculated by fitting fluorescence polarization values, corresponding to initial reaction rates, to the Morrison equation (Morrison, J. F. (1969) Kinetics of the reversible inhibition of enzyme catalysed reactions by tight-binding inhibitors. Biochim. Biophys. Acta 185, 269-286) for tight-binding competitive inhibitors using non-linear regression method (GraphPad Prism, GraphPad Software, San Diego, Calif.).

[2] = biological target: truncated PI3Kα (p110α/iSH2 p85α) (Homo sapiens (Human), UniProt P42336); assay: PI3KA_Act fluorescence polarization kinase assay (Ki); format: biochemical; details: 1 mM ATP
Summary of the method: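 p110α/iSH2 p85α (0.5 nM) was reacted with 30 μM sonicated PIP2 in 50 mM HEPES pH 7.4, 150 mM NaCl, 5 mM MgCl2, 1 mM DTT and 0.05% CHAPS for 30 min at room temperature, then stopped with EDTA. PIP3 was detected by fluorescence polarization (GST-Grp1 PH domain/TAMRA-PIP3), and Ki came from a Morrison tight-binding fit.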

full-length PI3Kα (full-length p110α/p85α), sequence (P42336 whole entry): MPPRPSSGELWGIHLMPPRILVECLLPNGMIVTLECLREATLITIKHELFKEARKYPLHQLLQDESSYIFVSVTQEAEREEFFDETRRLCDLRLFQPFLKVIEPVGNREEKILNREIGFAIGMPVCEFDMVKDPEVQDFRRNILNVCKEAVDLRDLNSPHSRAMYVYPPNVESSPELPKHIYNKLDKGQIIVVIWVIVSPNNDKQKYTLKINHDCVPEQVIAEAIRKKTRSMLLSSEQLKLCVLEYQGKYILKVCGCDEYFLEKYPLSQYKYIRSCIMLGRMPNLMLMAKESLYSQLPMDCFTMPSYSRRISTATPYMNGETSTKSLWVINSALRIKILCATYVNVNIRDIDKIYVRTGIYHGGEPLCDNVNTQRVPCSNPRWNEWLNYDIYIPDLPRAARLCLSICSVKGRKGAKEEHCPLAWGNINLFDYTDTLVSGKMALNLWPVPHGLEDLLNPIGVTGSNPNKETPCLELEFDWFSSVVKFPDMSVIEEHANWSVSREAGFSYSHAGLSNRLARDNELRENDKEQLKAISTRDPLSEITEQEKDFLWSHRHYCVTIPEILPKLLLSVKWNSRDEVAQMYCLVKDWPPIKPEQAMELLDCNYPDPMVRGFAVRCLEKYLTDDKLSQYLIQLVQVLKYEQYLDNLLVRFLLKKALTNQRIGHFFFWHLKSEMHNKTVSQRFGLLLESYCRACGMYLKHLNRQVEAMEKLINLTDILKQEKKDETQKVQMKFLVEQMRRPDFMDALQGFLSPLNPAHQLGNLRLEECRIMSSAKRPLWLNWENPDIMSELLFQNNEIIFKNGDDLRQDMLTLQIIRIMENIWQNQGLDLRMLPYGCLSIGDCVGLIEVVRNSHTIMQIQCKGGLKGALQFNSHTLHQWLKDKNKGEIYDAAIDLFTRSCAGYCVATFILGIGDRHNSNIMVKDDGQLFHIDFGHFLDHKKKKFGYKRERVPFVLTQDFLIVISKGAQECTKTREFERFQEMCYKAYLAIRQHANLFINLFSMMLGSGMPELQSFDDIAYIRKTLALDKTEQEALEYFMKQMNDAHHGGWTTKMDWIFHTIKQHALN
full-length PI3Kα (full-length p110α/p85α), sequence (P27986 whole entry partner): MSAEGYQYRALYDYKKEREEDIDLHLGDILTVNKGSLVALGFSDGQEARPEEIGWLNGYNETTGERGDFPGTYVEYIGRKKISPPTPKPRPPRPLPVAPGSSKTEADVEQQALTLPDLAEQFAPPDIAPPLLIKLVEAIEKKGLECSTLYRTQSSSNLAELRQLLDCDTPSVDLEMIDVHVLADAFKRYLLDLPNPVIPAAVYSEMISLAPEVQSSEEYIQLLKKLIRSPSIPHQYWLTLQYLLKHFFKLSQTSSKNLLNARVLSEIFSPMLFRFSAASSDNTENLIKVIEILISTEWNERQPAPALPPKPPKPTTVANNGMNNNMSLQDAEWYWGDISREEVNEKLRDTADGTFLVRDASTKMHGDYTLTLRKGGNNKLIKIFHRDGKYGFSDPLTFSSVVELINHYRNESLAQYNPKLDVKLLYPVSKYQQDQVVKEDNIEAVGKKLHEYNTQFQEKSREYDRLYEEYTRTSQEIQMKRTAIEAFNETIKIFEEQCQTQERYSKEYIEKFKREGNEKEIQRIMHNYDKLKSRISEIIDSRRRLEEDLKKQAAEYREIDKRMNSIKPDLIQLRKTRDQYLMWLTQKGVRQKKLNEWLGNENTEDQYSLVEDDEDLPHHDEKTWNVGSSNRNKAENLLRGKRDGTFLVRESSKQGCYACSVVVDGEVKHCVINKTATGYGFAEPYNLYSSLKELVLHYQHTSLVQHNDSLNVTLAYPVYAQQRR
truncated PI3Kα (p110α/iSH2 p85α), sequence (P42336 whole entry, the tested form may be a part): as the sequence (P42336 whole entry) above

With Nc1ncc(-c2nc(N3CCOCC3)nc3c2CCN3C2CCC(F)(F)C2)cn1 (racemic) [Example 19] the “PI3KA_FL Ki” value [1] was 0.528 nM.
With Nc1ncc(-c2nc(N3CCOCC3)nc3c2CCN3C2CCCOC2)cn1 (racemic) [Example 37] the “PI3KA_FL Ki” value [1] was 7.189 nM.
With CC(=O)N1CCCC(N2CCc3c(-c4cnc(N)nc4)nc(N4CCOCC4)nc32)C1 (racemic) [Example 51] the “PI3KA_FL Ki” value [1] was 18.619 nM.
CC(=O)N1C[C@@H](F)[C@H](N2CCc3c(-c4cnc(N)nc4)nc(N4CCOCC4)nc32)C1 (single isomer, unassigned) [Example 66] was tested, and the “PI3KA_FL Ki” value [1] was 0.926 nM.
With CC(=O)N1C[C@H](F)[C@@H](N2CCc3c(-c4cnc(N)nc4)nc(N4CCOCC4)nc32)C1 (single isomer, unassigned) [Example 67] the “PI3KA_FL Ki” value [1] was 1.899 nM.
In the case of CC(=O)N1C[C@@H](N2CCc3c(-c4cnc(N)nc4)nc(N4CCOCC4)nc32)[C@@H](F)C1 (single isomer, unassigned) [Example 75], the “PI3KA_FL Ki” value [1] is reported as 1.106 nM.
With C[C@H]1COCCN1c1nc(-c2cnc(N)nc2)c2c(n1)N([C@@H]1CCC(F)(F)C1)CC2 (single isomer, unassigned) [Example 88] the “PI3KA_FL Ki” value [1] was 0.674 nM.
C[C@H]1COCCN1c1nc(-c2cnc(N)nc2)c2c(n1)N([C@H]1CCC(F)(F)C1)CC2 (single isomer, unassigned) [Example 89] was tested, and the “PI3KA_FL Ki” value [1] was 1.247 nM.
In the case of CC(=O)N1CC[C@@H](N2CCc3c(-c4cnc(N)nc4)nc(N4CCOCC4)nc32)C1 [Example 11], the “PI3KA_FL Ki” value [1] is reported as 4.095 nM.
With CC(=O)N1CC[C@H](N2CCc3c(-c4cnc(N)nc4)nc(N4CCOCC4)nc32)C1 [Example 12] the “PI3KA_FL Ki” value [1] was 1.130 nM.
With Nc1ncc(-c2nc(N3CCOCC3)nc3c2CCN3C2CCC2)cn1 [Example 14] the “PI3KA_FL Ki” value [1] was 6.843 nM.
In the case of CS(=O)(=O)[C@H]1C[C@H](N2CCc3c(-c4cnc(N)nc4)nc(N4CCOCC4)nc32)C1 [Example 15], the “PI3KA_FL Ki” value [1] is reported as 0.856 nM.
Nc1ncc(-c2nc(N3CCOCC3)nc3c2CCN3[C@H]2CCOC2)cn1 [Example 16] was tested, and the “PI3KA_FL Ki” value [1] was 1.423 nM.
For Nc1ncc(-c2nc(N3CCOCC3)nc3c2CCN3[C@@H]2CCOC2)cn1 [Example 17], the “PI3KA_FL Ki” value [1] was 4.273 nM.
For Nc1ncc(-c2nc(N3CCOCC3)nc3c2CCN3C2CCOCC2)cn1 [Example 18], the “PI3KA_FL Ki” value [1] was 2.706 nM.
For CC(=O)N(C)[C@H]1C[C@H](N2CCc3c(-c4cnc(N)nc4)nc(N4CCOCC4)nc32)C1 [Example 21], the “PI3KA_FL Ki” value [1] was 5.393 nM.
CN([C@H]1C[C@H](N2CCc3c(-c4cnc(N)nc4)nc(N4CCOCC4)nc32)C1)S(C)(=O)=O [Example 22] was tested, and the “PI3KA_FL Ki (nM)” value [1] was “≦0.229 nM”.
For CC(=O)N[C@H]1C[C@@H](N2CCc3c(-c4cnc(N)nc4)nc(N4CCOCC4)nc32)C1 [Example 23], the “PI3KA_FL Ki” value [1] was 9.696 nM.
In the case of Nc1ncc(-c2nc(N3CCOCC3)nc3c2CCN3[C@H]2C[C@H](O)C2)cn1 [Example 24], the “PI3KA_FL Ki” value [1] is reported as 0.961 nM.
In the case of Nc1ncc(-c2nc(N3CCOCC3)nc3c2CCN3[C@H]2CCN(C(=O)CO)C2)cn1 [Example 25], the “PI3KA_FL Ki (nM)” value [1] is reported as “≦0.229 nM”.
With Nc1ncc(-c2nc(N3CCOCC3)nc3c2CCN3[C@H]2CCN(S(N)(=O)=O)C2)cn1 [Example 26] the “PI3KA_FL Ki” value [1] was 0.423 nM.
CNC(=O)N1CC[C@H](N2CCc3c(-c4cnc(N)nc4)nc(N4CCOCC4)nc32)C1 [Example 27] was tested, and the “PI3KA_FL Ki” value [1] was 1.025 nM.
For COC(=O)N1CC[C@H](N2CCc3c(-c4cnc(N)nc4)nc(N4CCOCC4)nc32)C1 [Example 28], the “PI3KA_FL Ki” value [1] was 0.521 nM.
For CC(=O)N[C@H]1C[C@H](N2CCc3c(-c4cnc(N)nc4)nc(N4CCOCC4)nc32)C1 [Example 29], the “PI3KA_FL Ki” value [1] was 5.828 nM.
For “tert-butyl (cis-3-{4-(2-aminopyrimidin-5-yl)-2-[(3S)-3-methylmorpholin-4-yl]-5,6-dihydro-7H-pyrrolo[2,3-d]pyrimidin-7-yl}cyclobutyl)methylcarbamate [Example 448]”, the “PI3KA_Act Ki” value [2] was 0.690 nM.
For “tert-butyl (trans-3-{4-(2-aminopyrimidin-5-yl)-2-[(3S)-3-methylmorpholin-4-yl]-5,6-dihydro-7H-pyrrolo[2,3-d]pyrimidin-7-yl}cyclobutyl)methylcarbamate [Example 449]”, the “PI3KA_Act Ki” value [2] was 0.294 nM.
